Laboratory results published in patent US20220257702A1, “STABLE ALBUVIRTIDE COMPOSITIONS” (priority 2019, published 2022).

Columns and labels:
[1] = Stability of lyophilized Albuvirtide-PB upon storage at −20° C. (HPLC); assay type: physicochemical; conditions: in words, Table 6
Protocol: (§1) The liquid compositions having albuvirtide and PB were then lyophilized and their stability were tested. Part of the organic solvent could be removed using reduced-pressure evaporation. Stability of Albuvirtide-PB upon lyophilization, upon storage at 25° C., 6° C. and −20° C. were tested using HPLC. The lyophilized powder of Albuvirtide-PB were kept at 25° C., 6° C. and −20° C. for certain periods of time while their purities were monitored during such periods by HPLC.

[2] = Stability of lyophilized Albuvirtide-PB upon storage at 6° C. (HPLC); assay type: physicochemical; conditions: in words
Protocol: as §1

[3] = cited from earlier work
[4] = Stability of lyophilized albuvirtide compositions upon storage at 25° C. (HPLC); assay type: physicochemical; conditions: in words
Protocol: as §1

[5] = tested on: HIV-1; conditions: background statement; cited from earlier work

albuvirtide
purity of albuvirtide during storage for 3 month at −20° C. [1]: barely changed | change in purity of albuvirtide during storage for 1 month at 6° C. ([2]; Table 5): equivalent to that during storage at 25 °C for 5 days | purity of albuvirtide during storage for 2 months at 6° C. ([2]; Table 10): barely changed | in vivo half-life [3]: long half-life | purity of albuvirtide during storage for 5 days at 25° C. ([4]; Table 9): barely changed | purity of albuvirtide during storage for 1 month at 25° C. ([4]; Table 11): barely changed | concentration at which viral entry is inhibited [5]: low nanomolar concentration | in vitro activity against HIV-1 [5]: in vitro activity against various HIV-1 strains and certain variants that are resistant to enfuvirtide (Fuzeon)
